Laboratory results taken from ChEMBL document CHEMBL6134839, “Novel 15-lipoxygenase-1 inhibitor protects cells from RSL3-induced cell death” (Eur J Med Chem, 2025).
pEC50, pIC50: −log10 of the molar value.

Legend:
[1] = target: T1, Polyunsaturated fatty acid lipoxygenase ALOX15 (Homo sapiens, UniProt P16050); experiment: Inhibition of human 15-LOX-1 using linoleic acid as substrate preincubated for 10 mins followed by substrate addition
T1 sequence (P16050 whole entry): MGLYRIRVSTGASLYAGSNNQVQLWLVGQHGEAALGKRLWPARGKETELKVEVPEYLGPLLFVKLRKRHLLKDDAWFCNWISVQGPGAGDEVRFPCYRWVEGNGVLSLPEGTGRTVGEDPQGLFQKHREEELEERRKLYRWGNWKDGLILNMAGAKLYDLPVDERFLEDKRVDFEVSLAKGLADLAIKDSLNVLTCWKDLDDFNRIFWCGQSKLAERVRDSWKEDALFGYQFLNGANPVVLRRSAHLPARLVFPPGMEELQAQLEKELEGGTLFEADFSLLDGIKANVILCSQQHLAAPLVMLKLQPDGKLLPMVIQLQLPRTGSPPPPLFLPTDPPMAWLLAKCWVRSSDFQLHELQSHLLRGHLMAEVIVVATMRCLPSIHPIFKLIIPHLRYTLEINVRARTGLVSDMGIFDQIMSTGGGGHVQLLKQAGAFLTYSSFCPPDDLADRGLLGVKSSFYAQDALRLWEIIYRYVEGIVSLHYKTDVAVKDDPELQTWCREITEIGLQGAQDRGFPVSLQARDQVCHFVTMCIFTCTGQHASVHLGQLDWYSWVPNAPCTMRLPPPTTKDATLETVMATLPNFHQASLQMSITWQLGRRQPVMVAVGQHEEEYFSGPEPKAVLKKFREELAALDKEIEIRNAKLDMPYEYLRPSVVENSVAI

[2] = Inhibition of RSL3-induced lipid peroxidation in human HEK293 cells incubated for 3 hrs by C11-BODIPY581/591 probe based flow cytometry analysis; type: functional, cell-based

## c1ccc2c(c1)SCc1c-2[nH]c2ccccc12
[1]
  pIC50: 5.00
[2]
  pEC50: 5.92
